Assay results reported in patent publication US10059701B2 (Merck Patent GmbH, priority 2015, dated 2018).
Structures can show the parent of a compound that is named as a salt.

Tests used:
IRAK4 = molecular target: T1, IRAK4 (Homo sapiens, UniProt Q9NWZ3); experiment: IRAK4 enzymatic assay (ADP-Glo luminescence); type: biochemical; conditions: purified human recombinant His-TEV-IRAK4 (1-460), ATP 2 μM
T1 construct: His-TEV-IRAK4 (1-460); His (N); TEV cleavage site (N)
T1 sequence (Q9NWZ3 1-460): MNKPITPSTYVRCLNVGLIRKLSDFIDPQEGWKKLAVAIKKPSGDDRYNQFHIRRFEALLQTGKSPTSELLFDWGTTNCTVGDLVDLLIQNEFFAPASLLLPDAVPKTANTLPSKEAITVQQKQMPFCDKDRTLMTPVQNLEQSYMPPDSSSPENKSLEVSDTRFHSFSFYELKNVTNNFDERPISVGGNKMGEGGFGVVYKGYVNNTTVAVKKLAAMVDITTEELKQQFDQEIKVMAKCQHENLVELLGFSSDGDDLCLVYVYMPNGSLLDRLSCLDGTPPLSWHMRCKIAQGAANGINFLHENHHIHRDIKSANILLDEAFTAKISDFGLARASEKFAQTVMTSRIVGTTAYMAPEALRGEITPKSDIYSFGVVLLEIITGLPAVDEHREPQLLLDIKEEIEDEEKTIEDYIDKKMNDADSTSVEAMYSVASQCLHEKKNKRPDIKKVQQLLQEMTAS
How it was run: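 ADP-Glo luminescence read-out after a 2 h RT kinase reaction with 2 μM ATP and 300 nM biotinylated STK1 peptide. Enzyme (His-TEV-IRAK4 1-460, 0.3 μg/ml) first incubated 15 min with serially diluted compounds (10 μM–0.5 nM) in 50 mM Hepes pH 7.0, 10 mM MgCl2, 5 mM MnCl2.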

IRAK1 = molecular target: T2, IRAK1 (Homo sapiens, UniProt P51617); experiment: IRAK1 enzymatic assay (ADP-Glo luminescence); type: biochemical; conditions: purified human recombinant His-TEV-IRAK1 (194-712)
T2 construct: His-TEV-IRAK1 (194-712); His (N); TEV cleavage site (N)
T2 sequence (P51617 194-712): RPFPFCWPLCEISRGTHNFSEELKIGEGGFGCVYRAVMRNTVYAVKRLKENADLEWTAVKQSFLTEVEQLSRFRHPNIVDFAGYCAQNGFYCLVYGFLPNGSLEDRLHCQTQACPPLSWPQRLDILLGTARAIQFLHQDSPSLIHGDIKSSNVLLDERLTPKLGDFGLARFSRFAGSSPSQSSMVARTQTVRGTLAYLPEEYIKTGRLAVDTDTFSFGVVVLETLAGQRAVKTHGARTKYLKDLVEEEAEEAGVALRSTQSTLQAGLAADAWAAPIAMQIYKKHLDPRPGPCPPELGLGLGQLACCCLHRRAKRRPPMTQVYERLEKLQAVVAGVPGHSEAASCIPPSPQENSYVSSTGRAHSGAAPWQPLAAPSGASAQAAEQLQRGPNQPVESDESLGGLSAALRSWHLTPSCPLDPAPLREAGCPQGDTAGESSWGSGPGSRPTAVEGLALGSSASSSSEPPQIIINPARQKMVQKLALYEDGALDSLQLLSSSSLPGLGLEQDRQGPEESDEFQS
How it was run: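 Luminescent ADP-Glo read-out of ATP turnover by purified His-TEV-IRAK1 (194-712) at 0.3 μg/ml after a 2-hour RT reaction. Compounds, serially diluted from 10 μM to 0.5 nM, were preincubated with enzyme 15 minutes in Hepes pH 7.0 buffer with MgCl2, DTT, EGTA and Triton X-100.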

Structure (SMILES) | IC50 (IRAK4) [nM] | IC50 (IRAK1) [nM]
O=C(/N=c1\[nH]c2cc(N3CC4CC(N4)C3=O)ccc2n1CCCO)c1cccc(C(F)(F)F)c1 (centres unmarked) [Example 216, (E)-N-(1-(3-hydroxypropyl)-5-(2-oxo-3,6-diazabicyclo[3.1.1]heptan-3-yl)-1H-benzo[d]imidazol-2(3H)-ylidene)-3-(trifluoromethyl)benzamide] | ≤ 100 | 100 to 1000
O=C(/N=c1\[nH]c2cc(N3CCOCC3=O)ccc2n1C1CCS(=O)(=O)CC1)c1cccc(C(F)F)c1 [Compound 80, (E)-3-(difluoromethyl)-N-(1-(1,1-dioxidotetrahydro-2H-thiopyran-4-yl)-5-(3-oxomorpholino)-1H-benzo[d]imidazol-2(3H)-ylidene)benzamide] | ≤ 100 | ≤ 100
O=C(O)CCn1/c(=N/C(=O)c2cccc(C(F)(F)F)c2)[nH]c2cc(N3CCOCC3=O)ccc21 [Compound 166, (E)-3-(5-(3-oxomorpholino)-2-((3-(trifluoromethyl)benzoyl)imino)-2,3-dihydro-1H-benzo[d]imidazol-1-yl)propanoic acid] | ≤ 100 | > 1000
O=C(/N=c1\[nH]c2cc(N3CCN(C4CC4)CC3=O)ccc2n1CCCO)c1cccc(C(F)F)c1 [Compound 182, (E)-N-(5-(4-cyclopropyl-2-oxopiperazin-1-yl)-1-(3-hydroxypropyl)-1H-benzo[d]imidazol-2(3H)-ylidene)-3-(difluoromethyl)benzamide] | ≤ 100 | ≤ 100
O=C(O)Cn1/c(=N/C(=O)c2cccc(C(F)(F)F)c2)[nH]c2cc(N3CCOCC3=O)ccc21 [Compound 167, (E)-2-(5-(3-oxomorpholino)-2-((3-(trifluoromethyl)benzoyl)imino)-2,3-dihydro-1H-benzo[d]imidazol-1-yl)acetic acid] | > 1000 | > 1000
O=C(/N=c1\[nH]c2cc(N3CCOCC3=O)ccc2n1CCCO)c1cccc(SC(F)(F)F)c1 [Compound 151, (E)-N-(1-(3-hydroxypropyl)-5-(3-oxomorpholino)-1H-benzo[d]imidazol-2(3H)-ylidene)-3-((trifluoromethyl)thio)benzamide] | ≤ 100 | ≤ 100
O=C(/N=c1\[nH]c2cc(N3CC4CCC(C3=O)N4C3CC3)ccc2n1CCCO)c1cccc(C(F)F)c1 (centres unmarked) [Example 214, (E)-N-(5-(8-cyclopropyl-2-oxo-3,8-diazabicyclo[3.2.1]octan-3-yl)-1-(3-hydroxypropyl)-1H-benzo[d]imidazol-2(3H)-ylidene)-3-(difluoromethyl)benzamide] | ≤ 100 | 100 to 1000
O=C(/N=c1\[nH]c2cc(N3CCCOC3=O)ccc2n1C1CCS(=O)(=O)C1)c1cccc(C(F)(F)F)c1 (centres unmarked) [Compound 157, (E)-N-(1-(1,1-dioxidotetrahydrothiophen-3-yl)-5-(2-oxo-1,3-oxazinan-3-yl)-1H-benzo[d]imidazol-2(3H)-ylidene)-3-(trifluoromethyl)benzamide] | ≤ 100 | ≤ 100
C[C@H](CCO)n1/c(=N/C(=O)c2cccc(C#N)c2)[nH]c2cc(N3CCCOC3=O)ccc21 [Compound 42, (R,E)-3-cyano-N-(1-(4-hydroxybutan-2-yl)-5-(2-oxo-1,3-oxazinan-3-yl)-1H-benzo[d]imidazol-2(3H)-ylidene)benzamide] | ≤ 100 | 100 to 1000
O=C(/N=c1\[nH]c2cc(N3CCCOC3=O)ccc2n1CC1(C(=O)O)CC1)c1cccc(C(F)(F)F)c1 [Compound 174, (E)-1-((5-(2-oxo-1,3-oxazinan-3-yl)-2-((3-(trifluoromethyl)benzoyl)imino)-2,3-dihydro-1H-benzo[d]imidazol-1-yl)methyl)cyclopropanecarboxylic acid] | ≤ 100 | 100 to 1000
O=C(/N=c1\[nH]c2cc(N3CCOCC3=O)ccc2n1CCCO)c1ccccc1 [Compound 30, (E)-N-(1-(3-hydroxypropyl)-5-(3-oxomorpholino)-1H-benzo[d]imidazol-2(3H)-ylidene)benzamide] | 100 to 1000 | 100 to 1000
C[C@@H](CCO)n1/c(=N/C(=O)c2cccc(C(F)F)c2)[nH]c2cc(N3CCOCC3=O)ccc21 [Compound 16, (S,E)-3-(difluoromethyl)-N-(1-(4-hydroxybutan-2-yl)-5-(3-oxomorpholino)-1H-benzo[d]imidazol-2(3H)-ylidene)benzamide] | ≤ 100 | 100 to 1000
O=C(/N=c1\[nH]c2cc(N3C(=O)COCC34CC4)ccc2n1CCCO)c1cccc(C(F)F)c1 [Example 190, (E)-3-(difluoromethyl)-N-(1-(3-hydroxypropyl)-5-(5-oxo-7-oxa-4-azaspiro[2.5]octan-4-yl)-1H-benzo[d]imidazol-2(3H)-ylidene)benzamide] | ≤ 100 | ≤ 100

Continued, values first:

IC50 (IRAK4) [nM] | IC50 (IRAK1) [nM] | Structure (SMILES)
≤ 100 | 100 to 1000 | O=C(/N=c1\[nH]c2cc(N3CCOCC3=O)ccc2n1C1CCNCC1)c1cccc(C(F)F)c1 [Compound 129, (E)-3-(difluoromethyl)-N-(5-(3-oxomorpholino)-1-(piperidin-4-yl)-1H-benzo[d]imidazole-2(3H)-ylidene)benzamide hydrochloride]
≤ 100 | 100 to 1000 | O=C(/N=c1\[nH]c2cc(N3CCOCC3=O)ccc2n1CCCO)c1cccc(OC(F)F)c1 [Compound 6, (E)-3-(difluoromethoxy)-N-(1-(3-hydroxypropyl)-5-(3-oxomorpholino)-1H-benzo[d]imidazol-2(3H)-ylidene)benzamide]
≤ 100 | 100 to 1000 | O=C(/N=c1\[nH]c2cc(N3CCN(CC(F)(F)F)CC3=O)ccc2n1CCCO)c1cccc(C(F)F)c1 [Compound 113, (E)-3-(difluoromethyl)-N-(1-(3-hydroxypropyl)-5-(2-oxo-4-(2,2,2-trifluoroethyl)piperazin-1-yl)-1H-benzo[d]imidazol-2(3H)-ylidene)benzamide]
≤ 100 | ≤ 100 | COc1cc2c(cc1N1CCOCC1=O)[nH]/c(=N\C(=O)c1cccc(C#N)c1)n2CCCO [Compound 74, (E)-3-cyano-N-(1-(3-hydroxypropyl)-6-methoxy-5-(3-oxomorpholino)-1H-benzo[d]imidazol-2(3H)-ylidene)benzamide]
≤ 100 | 100 to 1000 | O=C(/N=c1\[nH]c2cc(N3CCOC3=O)ccc2n1CCCO)c1cccc(C(F)(F)F)c1 [Compound 8, (E)-N-(1-(3-hydroxypropyl)-5-(2-oxooxazolidin-3-yl)-1H-benzo[d]imidazol-2(3H)-ylidene)-3-(trifluoromethyl)benzamide]
≤ 100 | 100 to 1000 | CC1(C)C(=O)N(c2ccc3c(c2)[nH]/c(=N\C(=O)c2cccc(C(F)F)c2)n3CCCO)CCN1CCO [Example 195, (E)-3-(difluoromethyl)-N-(5-(4-(2-hydroxyethyl)-3,3-dimethyl-2-oxopiperazin-1-yl)-1-(3-hydroxypropyl)-1H-benzo[d]imidazol-2(3H)-ylidene)benzamide]
